According to patent US7964624B1, “Inhibitors of serine proteases” (priority 2005, dated 2011):

Target: T1, HCV NS3 protease domain (Hepatitis C virus genotype 1b, UniProt Q9WMX2)
T1 construct: The first 181 amino acids of NS3 (residues 1027-1207 of the viral polyprotein); hexa-histidine (C); made in house; host or cells: E. coli BL21/DE3 pLysS
Assay: biochemical
Settings: Enzyme Assay 1 (HCV NS3 Protease Domain Peptide Cleavage Assay) activity, apparent Ki class

T1 sequence (Q9WMX2 1027-1207, other chains not shown): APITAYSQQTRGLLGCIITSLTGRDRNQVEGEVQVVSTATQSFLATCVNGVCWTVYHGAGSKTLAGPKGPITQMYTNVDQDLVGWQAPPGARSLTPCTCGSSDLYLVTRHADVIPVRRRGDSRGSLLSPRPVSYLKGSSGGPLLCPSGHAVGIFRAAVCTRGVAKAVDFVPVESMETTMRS

SMILES	Ki [nM]
CCC[C@H](NC(=O)[C@@H]1C[C@]2(CC(c3cc(Cl)c(OC)c(OC)c3)=NO2)CN1C(=O)[C@@H](NC(=O)CC1CCCCC1)C(C)(C)C)C(=O)C(=O)NC1CC1 [Compound 494]	< 100
CCC[C@H](NC(=O)[C@@H]1C[C@]2(CC(c3nn(C)cc3Cl)=NO2)CN1C(=O)[C@@H](NC(=O)CC1CCCCC1)C(C)(C)C)C(=O)C(=O)NC1CC1 [Compound 495]	> 500
CCC[C@H](NC(=O)[C@@H]1C[C@]2(CC(c3cccc(Cl)c3)=NO2)CN1C(=O)[C@@H](NC(=O)NCc1cccnc1)C(C)(C)C)C(=O)C(=O)NC1CC1 [Compound 497]	100 to 500
CCC[C@H](NC(=O)[C@@H]1C[C@]2(CC(c3cc(F)cc(C(F)(F)F)c3)=NO2)CN1C(=O)[C@@H](NC(=O)O[C@H]1CCOC1)C(C)(C)C)C(=O)C(=O)NC1CC1 [Compound 498]	100 to 500
CCC[C@H](NC(=O)[C@@H]1C[C@]2(CC(c3cccc(Cl)c3)=NO2)CN1C(=O)[C@@H](NC(=O)[C@H]1CC[C@H](OC)CC1)C(C)(C)C)C(=O)C(=O)NC1CC1 [Compound 503]	100 to 500
CCC[C@H](NC(=O)[C@@H]1C[C@]2(CC(c3cccc(Cl)c3)=NO2)CN1C(=O)[C@@H](NC(=O)CCc1cccnc1)C(C)(C)C)C(=O)C(=O)NC1CC1 [Compound 504]	100 to 500
CCC[C@H](NC(=O)[C@@H]1C[C@]2(CC(c3cccc(Cl)c3)=NO2)CN1C(=O)[C@@H](NC(=O)CCC1NC(=O)NC1=O)C(C)(C)C)C(=O)C(=O)NC1CC1 (some centres unmarked) [Compound 505]	100 to 500
CCC[C@H](NC(=O)[C@@H]1C[C@]2(CC(c3cccc(Cl)c3)=NO2)CN1C(=O)[C@@H](NC(=O)Cn1ccc2ncccc21)C(C)(C)C)C(=O)C(=O)NC1CC1 [Compound 506]	> 500
CCC[C@H](NC(=O)[C@@H]1C[C@@]2(CC(c3cccc(C(F)(F)F)c3)=NO2)CN1C(=O)[C@@H](NC(=O)O[C@H]1CCOC1)C(C)(C)C)C(=O)C(=O)NC1CC1 [Compound 509]	> 500
CCC[C@H](NC(=O)[C@@H]1C[C@]2(CC(c3ccc([N+](=O)[O-])cc3)=NO2)CN1C(=O)[C@@H](NC(=O)O[C@H]1CCOC1)C(C)(C)C)C(=O)C(=O)NC1CC1 [Compound 511]	100 to 500
CCC[C@H](NC(=O)[C@@H]1C[C@]2(CC(c3ccccc3)=NO2)CN1C(=O)OCC1c2ccccc2-c2ccccc21)C(=O)C(=O)NC1CC1 [Compound 514]	> 500
CCC[C@H](NC(=O)[C@@H]1C[C@]2(CC(c3cccc(Cl)c3)=NO2)CN1C(=O)[C@@H](NC(=O)OC1CCCOC1)C(C)(C)C)C(=O)C(=O)NC1CC1 (some centres unmarked) [Compound 515]	100 to 500
CCC[C@H](NC(=O)[C@@H]1C[C@]2(CC(c3ccc(OC)cc3OC)=NO2)CN1C(=O)[C@@H](NC(=O)O[C@H]1CCOC1)C(C)(C)C)C(=O)C(=O)NC1CC1 [Compound 516]	> 500
CCC[C@H](NC(=O)[C@@H]1C[C@]2(CC(c3cccc(Cl)c3)=NO2)CN1C(=O)[C@@H](NC(=O)[C@@H]1CCC(=O)N1Cc1cccc(C)c1)C(C)(C)C)C(=O)C(=O)NC1CC1 [Compound 518]	< 100
CCC[C@H](NC(=O)[C@@H]1C[C@]2(CC(c3cc(C)cc(C)c3)=NO2)CN1C(=O)[C@@H](NC(=O)O[C@H]1CCOC1)C(C)(C)C)C(=O)C(=O)NC1CC1 [Compound 519]	100 to 500
CCC[C@H](NC(=O)[C@@H]1C[C@]2(CC(c3ccccc3)=NO2)CN1C(=O)[C@@H](NC(=O)OCc1ccccc1)C(C)(C)C)C(=O)C(=O)NC1CC1 [Compound 520]	> 500
CCC[C@H](NC(=O)[C@@H]1C[C@]2(CC(c3cccc(Cl)c3)=NO2)CN1C(=O)[C@@H](NC(=O)C1CCOCC1)C(C)(C)C)C(=O)C(=O)NC1CC1 [Compound 523]	100 to 500
CCC[C@H](NC(=O)[C@@H]1C[C@]2(CC(c3ccc(OC(F)(F)F)cc3)=NO2)CN1C(=O)O[C@H]1CCOC1)C(=O)C(=O)NC1CC1 [Compound 524]	> 500
CCC[C@H](NC(=O)[C@@H]1C[C@]2(CC(c3cccc(OC)c3)=NO2)CN1C(=O)[C@@H](NC(=O)CC1CCOCC1)C(C)(C)C)C(=O)C(=O)NC1CC1 [Compound 525]	> 500
CCC[C@H](NC(=O)[C@@H]1C[C@]2(CC(c3cccc(Cl)c3)=NO2)CN1C(=O)[C@@H](NC(=O)OCc1ccccc1)C(C)(C)C)C(=O)C(=O)NC1CC1 [Compound 526]	100 to 500
CCC[C@H](NC(=O)[C@@H]1C[C@]2(CC(c3ccc4c(c3)OCO4)=NO2)CN1C(=O)[C@@H](NC(=O)O[C@H]1CCOC1)C(C)(C)C)C(=O)C(=O)NC1CC1 [Compound 527]	100 to 500
CCC[C@H](NC(=O)[C@@H]1C[C@]2(CC(c3cccc(Cl)c3)=NO2)CN1C(=O)[C@@H](NC(=O)CCn1ncc2ccccc21)C(C)(C)C)C(=O)C(=O)NC1CC1 [Compound 528]	100 to 500
CCC[C@H](NC(=O)[C@@H]1C[C@]2(CC(c3ccc(O)cc3)=NO2)CN1C(=O)[C@@H](NC(=O)O[C@H]1CCOC1)C(C)(C)C)C(=O)C(=O)NC1CC1 [Compound 530]	> 500
CCC[C@H](NC(=O)[C@@H]1C[C@]2(CC(c3cccc(Cl)c3)=NO2)CN1C(=O)[C@@H](NC(=O)CC(C)C)C(C)(C)C)C(=O)C(=O)NC1CC1 [Compound 532]	> 500

SMILES	Ki [nM]
CCC[C@H](NC(=O)[C@@H]1C[C@]2(CC(c3ccc(F)cc3)=NO2)CN1C(=O)OCC1c2ccccc2-c2ccccc21)C(=O)C(=O)NC1CC1 [Compound 533]	> 500
CCC[C@H](NC(=O)[C@@H]1C[C@]2(CC(C(=O)c3ccccc3)=NO2)CN1C(=O)[C@@H](NC(=O)O[C@H]1CCOC1)C(C)(C)C)C(=O)C(=O)NC1CC1 [Compound 535]	100 to 500
CCC[C@H](NC(=O)[C@@H]1C[C@]2(CC(c3ccc4c(c3)OCO4)=NO2)CN1C(=O)[C@@H](NS(=O)(=O)c1cccc2ccccc12)C(C)(C)C)C(=O)C(=O)NC1CC1 [Compound 536]	> 500
CCC[C@H](NC(=O)[C@@H]1C[C@]2(CC(c3cccc(Cl)c3)=NO2)CN1C(=O)[C@@H](NC(=O)C(C)(C#N)Cc1ccccc1)C(C)(C)C)C(=O)C(=O)NC1CC1 (some centres unmarked) [Compound 538]	> 500
CCC[C@H](NC(=O)[C@@H]1C[C@]2(CC(c3ccc(F)c(C)c3)=NO2)CN1C(=O)[C@@H](NC(=O)CC1CCOCC1)C(C)(C)C)C(=O)C(=O)NC1CC1 [Compound 539]	100 to 500
CC(C)(C)NC(=O)N[C@H](C(=O)N1C[C@@]2(CC(c3cccc(Cl)c3)=NO2)C[C@H]1C(=O)NC(CC1CCC1)C(=O)C(=O)NC1CC1)C(C)(C)C (some centres unmarked) [Compound 542]	< 100
CCC[C@H](NC(=O)[C@@H]1C[C@]2(CC(c3ccc(C(=O)O)cc3)=NO2)CN1C(=O)[C@@H](NC(=O)O[C@H]1CCOC1)C(C)(C)C)C(=O)C(=O)NC1CC1 [Compound 543]	> 500
CCC[C@H](NC(=O)[C@@H]1C[C@]2(CC(c3cccc(Cl)c3)=NO2)CN1C(=O)[C@@H](NC(=O)C(C)Cn1cnc2ccccc21)C(C)(C)C)C(=O)C(=O)NC1CC1 (some centres unmarked) [Compound 544]	100 to 500
CCC[C@H](NC(=O)[C@@H]1C[C@]2(CC(c3ccc(F)c(C(F)(F)F)c3)=NO2)CN1C(=O)[C@@H](NC(=O)O[C@H]1CCOC1)C(C)(C)C)C(=O)C(=O)NC1CC1 [Compound 545]	100 to 500
CCC[C@H](NC(=O)[C@@H]1C[C@]2(CC(CC)=NO2)CN1C(=O)[C@@H](NC(=O)[C@@H](NC(=O)c1cnccn1)C1CCCCC1)C(C)(C)C)C(=O)C(=O)NC1CC1 [Compound 547]	< 100
CCC[C@H](NC(=O)[C@@H]1C[C@]2(CC(c3cccc(Cl)c3)=NO2)CN1C(=O)[C@@H](NC(=O)[C@@H](CC(=O)N1CCCC1)C1CCCCC1)C(C)(C)C)C(=O)C(=O)NC1CC1 [Compound 549]	< 100
CCC[C@H](NC(=O)[C@@H]1C[C@]2(CC(c3ccc4c(c3)CCO4)=NO2)CN1C(=O)[C@@H](NC(=O)CC1CCCCC1)C(C)(C)C)C(=O)C(=O)NC1CC1 [Compound 552]	100 to 500
CCC[C@H](NC(=O)[C@@H]1C[C@]2(CC(c3cccc(Cl)c3)=NO2)CN1C(=O)[C@@H](NC(=O)Cc1cc(=O)[nH]c(=O)[nH]1)C(C)(C)C)C(=O)C(=O)NC1CC1 [Compound 553]	100 to 500
CCC[C@H](NC(=O)[C@@H]1C[C@]2(CC(c3ccc(CC)o3)=NO2)CN1C(=O)[C@@H](NC(=O)CC1CCOCC1)C(C)(C)C)C(=O)C(=O)NC1CC1 [Compound 554]	> 500
CCC[C@H](NC(=O)[C@@H]1C[C@]2(CC(c3ccc(F)c(C)c3)=NO2)CN1C(=O)[C@@H](NC(=O)O[C@H]1CCOC1)C(C)(C)C)C(=O)C(=O)NC1CC1 [Compound 555]	100 to 500
CCC[C@H](NC(=O)[C@@H]1C[C@]2(CC(c3cccc(Cl)c3)=NO2)CN1C(=O)[C@@H](NC(=O)C1CC=CCC1C(=O)OC)C(C)(C)C)C(=O)C(=O)NC1CC1 (some centres unmarked) [Compound 557]	100 to 500
CCC[C@H](NC(=O)[C@@H]1C[C@]2(CC(c3cccc(Cl)c3)=NO2)CN1C(=O)[C@@H](NC(=O)Nc1ccccc1)C(C)(C)C)C(=O)C(=O)NC1CC1 [Compound 558]	100 to 500
CCC[C@H](NC(=O)[C@@H]1C[C@]2(CC(c3cccc(C(F)(F)F)c3)=NO2)CN1C(=O)[C@@H](NC(=O)O[C@H]1CCOC1)C(C)(C)C)C(=O)C(=O)NC1CC1 [Compound 560]	100 to 500
CCC[C@H](NC(=O)[C@@H]1C[C@]2(CC(c3cccc(Cl)c3)=NO2)CN1C(=O)[C@@H](NC(=O)OCc1cc(F)ccc1F)C(C)(C)C)C(=O)C(=O)NC1CC1 [Compound 561]	100 to 500
CCC[C@H](NC(=O)[C@@H]1C[C@]2(CC(c3cccc(Cl)c3)=NO2)CN1C(=O)[C@@H](NC(=O)OCc1cccnc1)C(C)(C)C)C(=O)C(=O)NC1CC1 [Compound 563]	100 to 500
CCC[C@H](NC(=O)[C@@H]1C[C@]2(CC(c3ccc4c(c3)OCO4)=NO2)CN1C(=O)[C@@H](NC(C)=O)C(C)(C)C)C(=O)C(=O)NC1CC1 [Compound 570]	100 to 500
CCC[C@H](NC(=O)[C@@H]1C[C@]2(CC(c3cccc(Cl)c3)=NO2)CN1C(=O)[C@@H](NC(=O)c1ccnn1-c1ccccc1)C(C)(C)C)C(=O)C(=O)NC1CC1 [Compound 571]	100 to 500
CCC[C@H](NC(=O)[C@@H]1C[C@]2(CC(c3cc(C)c(OC)c(C)c3)=NO2)CN1C(=O)[C@@H](NC(=O)CC1CCOCC1)C(C)(C)C)C(=O)C(=O)NC1CC1 [Compound 572]	100 to 500
